These results are taken from patent US20080167330A1, “Carbamoylsulphoximides as protein kinase inhibitors” (priority 2006, published 2008).

In test [1] the test system is human MCF7 breast tumour cells. Kind of test: MCF7 proliferation assay. The format is cell-based. Particulars: MCF7, 96 h, 4 days incubation, crystal violet staining. As for the experimental part: Cultivated human MCF7 breast tumour cells (ATCC HTB-22) were plated out in a density of 5000 cells/measurement point in 200 μl of growth medium (RPMI1640, 10% foetal calf serum, 2 mU/mL insulin, 0.1 nM oestradiol) in a 96-well multititre plate. After 24 hours, the cells from a plate (zero plate) were stained with crystal violet (see below), while the medium in the other plates was replaced by fresh culture medium (200 μl) to which the test substances had been added in various concentrations (0 μM, and in the range 0.01-30 μM; the final concentration of the solvent dimethyl sulphoxide was 0.5%). The cells were incubated in the presence of the test substances for 4 days. The cell proliferation was determined by staining the cells with crystal violet: the cells were fixed by adding 20 μl/measurement point of an 11% strength glutaraldehyde solution at room temperature for 15 min. After the fixed cells had been washed three times with water, the plates were dried at room temperature. The cells were stained by adding 100 μl/measurement point of a 0.1% strength crystal violet solution (pH adjusted to pH 3 by adding acetic acid). After the stained cells had been washed three times with water, the plates were dried at room temperature. The dye was dissolved by adding 100 μl/measurement point of a 10% strength acetic acid solution, and the extinction was determined by photometry at a wavelength of 595 nm. The percentage change in cell growth was calculated by normalizing the measurements to the extinctions of the zero point plate (=0%) and the extinction of the untreated (0 μM) cells (=100%). The IC50 values were determined by means of a 4-parameter fit using the company's own software.

In a further test the target is T1, KDR (VEGFR2) (Homo sapiens, UniProt P35968).
T1 construct: GST; purchased ProQinase GmbH, Freiburg; host or cells: baculovirus-infected insect cells (Sf9)
Description: KDR kinase assay. The format is biochemical. The note with it: 8 μM ATP. As for the experimental part: Recombinant KDR kinase-GST fusion proteins purified from baculovirus-infected insect cells (Sf9), were purchased from ProQinase GmbH, Freiburg. Poly(Glu4Tyr)n, which was used as kinase substrate, was purchased from Sigma.
KDR kinase was incubated in the presence of various concentrations of test substances (0 μM, and within the range 0.01-100 μM) in 40 μL of assay buffer [40 mM Tris/HCl pH 7.5, 10 mM MgCl2, 1 mM MnCl2, 1.0 mM dithiothreitol, 8 μM ATP, 0.025% PEG20000, 24 ng/μL poly(Glu4Tyr)n, 0.2 μCi/measurement point ^33P-gamma ATP, 1.25% dimethyl sulphoxide] at 22° C. for 10 min. The reaction was stopped by adding EDTA solution (250 mM, pH 7.5, 15 μl/measurement point). 15 μl of each reaction mixture were loaded onto P30 filter strips (from Wallac), and non-incorporated ^33P-ATP was removed by washing the filter strips three times in 0.5% strength phosphoric acid for 10 min each time.
After the filter strips had been dried at 70° C. for 1 hour, the filter strips were covered with scintillator strips (MeltiLex™ A, from Wallac) and baked at 90° C. for 1 hour. The amount of incorporated ^33P (substrate phosphorylation) was determined by scintillation measurement in a gamma radiation counter (Wallac).
The measured data were normalized to 0% inhibition (enzyme reaction without inhibitor) and 100% inhibition (all assay components except enzyme). The IC50 values were determined by means of a 4-parameter fit using the company's own software.

The test system of test [2] is Aurora C, CDK1/CycB, CDK2/CycE, KDR (VEGFR2). Kind of test: various kinase assays taken together (selectivity profile). The format is biochemical. The note with it: comparison across the kinase assays, in words. As for the experimental part: The compounds of Examples 1 to 22 were tested for their inhibitory effect in the various kinase assays and in a proliferation assay with MCF7 human breast tumour cells (Tab. 1). […] Exemplary compounds 1-8, 10-12, 15, 17-20 inhibit the proliferation of human MCF7 breast tumour cells with half-maximum concentrations in the submicromolar range.

T1 sequence (P35968 807-1356 limits assumed): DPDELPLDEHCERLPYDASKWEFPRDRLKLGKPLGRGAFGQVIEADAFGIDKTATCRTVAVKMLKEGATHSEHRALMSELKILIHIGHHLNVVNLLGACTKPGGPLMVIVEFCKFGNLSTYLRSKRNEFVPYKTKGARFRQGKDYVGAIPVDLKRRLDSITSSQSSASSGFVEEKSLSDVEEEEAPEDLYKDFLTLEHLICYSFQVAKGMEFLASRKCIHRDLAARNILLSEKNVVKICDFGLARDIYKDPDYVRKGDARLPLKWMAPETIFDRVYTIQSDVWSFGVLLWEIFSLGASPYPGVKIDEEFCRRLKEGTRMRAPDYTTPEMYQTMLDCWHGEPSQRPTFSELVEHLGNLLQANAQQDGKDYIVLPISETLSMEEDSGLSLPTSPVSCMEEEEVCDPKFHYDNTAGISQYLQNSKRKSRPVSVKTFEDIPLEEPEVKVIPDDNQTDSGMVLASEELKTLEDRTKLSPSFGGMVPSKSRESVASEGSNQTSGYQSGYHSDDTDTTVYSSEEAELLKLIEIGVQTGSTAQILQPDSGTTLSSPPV

As for `C[C@@H](Nc1nc(Nc2cccc(NC(=O)N=S(C)(C)=O)c2)ncc1Br)C(C)(C)O` [Example 1, N-({3-[(5-Bromo-4-{[(R)-2-hydroxy-1,2-dimethylpropyl]amino}pyrimidin-2-yl)amino]phenyl}carbamoyl)-S,S-dimethylsulphoximide], the IC50 in test [1] amounted to 0.4 µM; at KDR (VEGFR2), 0.17 µM.
For the molecule `C[C@@H](Nc1nc(Nc2ccc(NC(=O)N=S(C)(C)=O)cc2)ncc1Br)C(C)(C)O` [Example 2, N-({4-[(5-Bromo-4-{[(R)-2-hydroxy-1,2-dimethylpropyl]amino}pyrimidin-2-yl)-amino]phenyl}carbamoyl)-S,S-dimethylsulphoximide], the concentration for half-maximal inhibition (IC50) in test [1] was 0.5 µM; at KDR (VEGFR2) it was 0.23 µM.
On to `C[C@@H](O)[C@@H](C)Nc1nc(Nc2ccc(NC(=O)N=S(C)(C)=O)cc2)ncc1Br` [Example 3, N-({4-[(5-Bromo-4-{[(1R,2R)-2-hydroxy-1-methylpropyl]amino}pyrimidin-2-yl)amino]phenyl}carbamoyl)-S,S-dimethylsulphoximide], for which the half-maximal inhibitory concentration (IC50) in test [1] stood at 0.16 µM; at KDR (VEGFR2), 0.12 µM.
As for `C[C@@H](O)[C@@H](C)Oc1nc(Nc2ccc(NC(=O)N=S(C)(C)=O)cc2)ncc1Br` [Example 4, N-({4-[(5-Bromo-4-{[(1R,2R)-2-hydroxy-1-methylpropyl]oxy}pyrimidin-2-yl)amino]phenyl}carbamoyl)-S,S-dimethylsulphoximide], the IC50 was 0.14 µM in test [1] and 0.16 µM at KDR (VEGFR2).
With `C[C@@H](O)[C@@H](C)Nc1nc(Nc2cccc(NC(=O)N=S(C)(C)=O)c2)ncc1Br` [Example 5, N-({3-[(5-Bromo-4-{[(1R,2R)-2-hydroxy-1-methylpropyl]amino}pyrimidin-2-yl)amino]phenyl}carbamoyl)-S,S-dimethylsulphoximide], the IC50 in test [1] stood at 0.16 µM; against KDR (VEGFR2), 0.063 µM.
Regarding `C[C@@H](O)[C@@H](C)Oc1nc(Nc2cccc(NC(=O)N=S(C)(C)=O)c2)ncc1Br` [Example 6, N-({3-[(5-Bromo-4-{[(1R,2R)-2-hydroxy-1-methylpropyl]oxy}pyrimidin-2-yl)amino]phenyl}carbamoyl)-S,S-dimethylsulphoximide], the half-inhibitory concentration (IC50) was 0.15 µM in test [1] and 0.13 µM against KDR (VEGFR2).
In the case of `C[C@@H](O)[C@@H](C)Nc1nc(Nc2ccc(F)c(NC(=O)N=S(C)(C)=O)c2)ncc1Br` [Example 7, N-({5-[(5-Bromo-4-{[(1R,2R)-2-hydroxy-1-methylpropyl]amino}pyrimidin-2-yl)amino]-2-fluorophenyl}carbamoyl)-S,S-dimethylsulphoximide], the IC50 is 0.5 µM in test [1] and 0.3 µM against KDR (VEGFR2).
On to `Cc1ccc(Nc2ncc(Br)c(N[C@H](C)[C@@H](C)O)n2)cc1NC(=O)N=S(C)(C)=O` [Example 8, N-({5-[(5-Bromo-4-{[(1R,2R)-2-hydroxy-1-methylpropyl]amino}pyrimidin-2-yl)amino]-2-methylphenyl}carbamoyl)-S,S-dimethylsulphoximide], for which the IC50 in test [1] was found to be 0.7 µM; on KDR (VEGFR2), 0.13 µM.
As for `COc1ccc(Nc2ncc(Br)c(N[C@H](C)[C@@H](C)O)n2)cc1NC(=O)N=S(C)(C)=O` [Example 10, N-({5-[(5-Bromo-4-{[(1R,2R)-2-hydroxy-1-methylpropyl]amino}pyrimidin-2-yl)amino]-2-methoxyphenyl}carbamoyl)-S,S-dimethylsulphoximide], the figures for the IC50 (in test [1]; at KDR (VEGFR2)) were 0.65 µM and 0.32 µM, respectively.
Turning to `COc1cc(Nc2ncc(Br)c(N[C@H](C)[C@@H](C)O)n2)ccc1NC(=O)N=S(C)(C)=O` [Example 11, N-({4-[(5-Bromo-4{[(1R,2R)-2-hydroxy-1-methylpropyl]amino}pyrimidin-2-yl)amino]-2-methoxyphenyl}carbamoyl)-S,S-dimethylsulphoximide], the IC50 in test [1] was 0.99 µM; against KDR (VEGFR2), 0.096 µM.
For `C[C@@H](O)[C@@H](C)Nc1nc(Nc2ccc(Cl)c(NC(=O)N=S(C)(C)=O)c2)ncc1Br` [Example 12, N-({5-[(5-Bromo-4-{[(1R,2R)-2-hydroxy-1-methylpropyl]amino}pyrimidin-2-yl)amino]-2-chlorophenyl}carbamoyl)-S,S-dimethylsulphoximide] the same measures were 0.86 µM and 0.35 µM.
For `C[C@@H](O)[C@@H](C)Nc1nc(Nc2ccc(NC(=O)N=S(C)(C)=O)cc2)ncc1C(F)(F)F` [Example 15], the results for the 50% inhibitory concentration (IC50) (in test [1]; against KDR (VEGFR2)) were 0.53 µM and 1.1 µM, respectively. In addition, the selectivity profile result in test [2] is listed as “CDK-selective”.
`CS(C)(=O)=NC(=O)Nc1ccc(Nc2ncc(Br)c(Nc3ccc4[nH]cnc4c3)n2)cc1` [Example 16, N-[(4-{[4-(1H-Benzimidazol-5-ylamino)-5-bromopyrimidin-2-yl]amino}phenyl)-carbamoyl]-S,S-dimethylsulphoximide]: the half-maximal inhibitory concentration (IC50) in test [1] was found to be 2.1 µM; at KDR (VEGFR2), 0.064 µM. The selectivity profile result in test [2] is given as “preferential KDR inhibition”.
For `C[C@@H](O)[C@@H](C)Nc1nc(Nc2cccc(C(=O)N=S(C)(C)=O)c2)ncc1Br` [Example 17, N-{3-[(5-Bromo-4-{[(1R,2R)-2-hydroxy-1-methylpropyl]amino}pyrimidin-2-yl)amino]benzoyl}-S,S-dimethylsulphoximide] the same measures were 0.38 µM, 0.33 µM and “CDK-selective”.
For the molecule `C[C@@H](O)[C@@H](C)Nc1nc(Nc2ccc(C(=O)N=S(C)(C)=O)cc2)ncc1Br` [Example 18, N-{4-[(5-Bromo-4-{[(1R,2R)-2-hydroxy-1-methylpropyl]amino}pyrimidin-2-yl)amino]benzoyl}-S,S-dimethylsulphoximide], the half-maximal inhibitory concentration (IC50) in test [1] amounted to 0.14 µM; against KDR (VEGFR2), 0.061 µM.
For `C[C@@H](Nc1nc(Nc2ccc(C(=O)N=S(C)(C)=O)cc2)ncc1Br)C(C)(C)O` [Example 19, N-{4-[(5-Bromo-4-{[(R)-2-hydroxy-1,2-dimethylpropyl]amino}pyrimidin-2-yl)amino]benzoyl}S,S-dimethylsulphoximide] the same measures were 0.25 µM and 0.12 µM.
For `C[C@@H](O)[C@@H](C)Oc1nc(Nc2ccc(C(=O)N=S(C)(C)=O)cc2)ncc1Br` [Example 20, N-{4-[(5-Bromo-4-{[(1R,2R)-2-hydroxy-1-methylpropyl]oxy}pyrimidin-2-yl)amino]benzoyl}-S,S-dimethylsulphoximide], the concentration for half-maximal inhibition (IC50) in test [1] is 0.31 µM; against KDR (VEGFR2), 0.096 µM.

Usually IC50 stands for the concentration needed to halve the response being measured. Read a high IC50 as a need for much substance.
